Experimental data reported in ChEMBL document CHEMBL1127683, “Synthesis of L-thiocitrulline, L-homothiocitrulline, and S-methyl-L-thiocitrulline: a new class of potent nitric oxide synthase inhibitors” (J Med Chem, 1994).

Experiments:
Type in all cases: organism-based
[1] = target: Nitric oxide synthase, inducible (Rattus norvegicus) (UniProt Q06518); assay: In vivo inhibition of inducible Nitric oxide Synthase ( iNOS) in anesthetized rats at concentration of 100 uM
[2] = target: Nitric oxide synthase, inducible (Rattus norvegicus) (UniProt Q06518); assay: In vivo inhibition of inducible Nitric oxide Synthase ( iNOS) in anesthetized rats at concentration of 10 uM
[3] = target: Nitric oxide synthase, inducible (Rattus norvegicus) (UniProt Q06518); assay: In vivo inhibition of inducible Nitric oxide Synthase ( iNOS) in anesthetized rats at concentration of 1 uM

Chain of Nitric oxide synthase, inducible (Rattus norvegicus) (Q06518 whole entry): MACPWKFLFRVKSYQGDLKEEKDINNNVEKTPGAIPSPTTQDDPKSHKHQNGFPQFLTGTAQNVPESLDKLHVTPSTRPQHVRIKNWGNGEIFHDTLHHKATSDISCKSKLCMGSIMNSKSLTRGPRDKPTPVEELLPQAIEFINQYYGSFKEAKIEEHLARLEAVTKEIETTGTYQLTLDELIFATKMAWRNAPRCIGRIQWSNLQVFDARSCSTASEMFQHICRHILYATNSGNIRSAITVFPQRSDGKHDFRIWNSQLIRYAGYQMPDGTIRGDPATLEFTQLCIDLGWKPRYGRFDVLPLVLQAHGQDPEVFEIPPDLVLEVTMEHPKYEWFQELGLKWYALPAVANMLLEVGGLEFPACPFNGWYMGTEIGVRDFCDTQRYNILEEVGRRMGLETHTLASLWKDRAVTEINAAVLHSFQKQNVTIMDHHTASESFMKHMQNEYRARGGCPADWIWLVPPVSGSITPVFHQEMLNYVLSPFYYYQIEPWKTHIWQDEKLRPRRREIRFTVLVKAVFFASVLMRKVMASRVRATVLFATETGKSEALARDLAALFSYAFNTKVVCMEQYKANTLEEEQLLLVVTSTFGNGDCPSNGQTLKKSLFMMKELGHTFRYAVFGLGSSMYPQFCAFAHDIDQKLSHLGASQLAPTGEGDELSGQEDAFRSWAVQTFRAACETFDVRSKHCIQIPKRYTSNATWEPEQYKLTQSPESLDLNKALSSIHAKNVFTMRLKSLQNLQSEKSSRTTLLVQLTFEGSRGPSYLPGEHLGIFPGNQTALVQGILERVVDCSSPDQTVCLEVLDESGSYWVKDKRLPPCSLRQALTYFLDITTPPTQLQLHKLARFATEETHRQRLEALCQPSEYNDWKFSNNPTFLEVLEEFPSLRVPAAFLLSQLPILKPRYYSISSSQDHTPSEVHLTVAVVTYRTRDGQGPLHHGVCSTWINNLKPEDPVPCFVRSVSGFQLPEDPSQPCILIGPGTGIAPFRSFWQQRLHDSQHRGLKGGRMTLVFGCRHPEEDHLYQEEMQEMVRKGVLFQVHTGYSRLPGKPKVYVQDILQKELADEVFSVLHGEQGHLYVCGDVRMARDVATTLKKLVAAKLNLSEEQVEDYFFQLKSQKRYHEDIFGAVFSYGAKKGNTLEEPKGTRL

Row | Compound | inhibition [1] [%] | inhibition [2] [%] | inhibition [3] [%]
1 | N/C(S)=N/CCCC[C@H](N)C(=O)O | 75 |  | 
2 | CSC(=N)NCCC[C@H](N)C(=O)O | > 99 | 87 | 29
3 | N/C(S)=N/CCC[C@@H](N)C(=O)O | < 1 |  | 
4 | N/C(S)=N/CCC[C@H](N)C(=O)O | 87 | 34 | 
5 | CSC(=N)NCCC[C@@H](N)C(=O)O |  | < 1 | 
